Earlier results on one compound are cited in patent US20210000792A1, “METHODS FOR REDUCING OR PREVENTING CARDIOVASCULAR EVENTS IN PATIENTS WITH TYPE II DIABETES MELLITUS” (Janssen Pharmaceutica NV, priority 2017, published 2021).

The data set relates to diabetic patients. As to conditions: metformin on its own; cited from earlier work.

For `CN(C)C(=N)N=C(N)N` [metformin], the “Average improvement in the HbA1c value” is on record as 1.0-1.5%.
